Test results reported in the supplement of paper PMC11061612.

Key:
A172 (Glioblastoma) = assay: Bliss excess, mean over the matrix (fraction); higher = more synergy
Procedure, shortened: (§1)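 Cell lines grown in DMEM/F12 or RPMI with 10% FBS were plated in 1536-well plates and held 24 hours at 37°C, 5% CO2 before 72 hours of exposure to two-drug dose matrices, with DMSO typically at 0.2%. CellTiter-Glo 2.0 luminescence gave viability, which was converted to inhibition. Vehicle wells were set to 0 and blank wells to 1. Combination Emax is the second-highest inhibition in the matrix, and Bliss excess is the observed combination effect minus the expected EA + EB − EA·EB, where EA and EB are the single-agent effects.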

[1] = tested on: BICR78 (Oral Cavity Carcinoma); assay: as above
Procedure, shortened: as §1

[2] = tested on: D-283MED (Other Solid Carcinomas); assay: as above
Procedure, shortened: as §1

[3] = tested on: HCC-827 (Lung Adenocarcinoma); assay: as above
Procedure, shortened: as §1

Saos-2 (Osteosarcoma) [4] = assay: as above
Procedure, shortened: as §1

[5] = tested on: WSU-DLCL2 (B-Cell Non-Hodgkin's Lymphoma); assay: as above
Procedure, shortened: as §1

[6] = tested on: CAL-39 (Other Solid Carcinomas); assay: combination Emax (second highest fraction inhibited in the dose matrix, 72 h); higher = more inhibition; extreme values may be limits of the assay
Procedure, shortened: as §1

[7] = tested on: EKVX (Non-Small Cell Lung Carcinoma); assay: as above
Procedure, shortened: as §1

[8] = tested on: ETK-1 (Biliary Tract Carcinoma); assay: as above
Procedure, shortened: as §1

HCC38 (Breast Carcinoma) = assay: as above
Procedure, shortened: as §1

[9] = tested on: HOP-92 (Non-Small Cell Lung Carcinoma); assay: as above
Procedure, shortened: as §1

[10] = tested on: MES-SA (Other Solid Carcinomas); assay: as above
Procedure, shortened: as §1

MSTO-211H (Mesothelioma) = assay: as above
Procedure, shortened: as §1

[11] = tested on: P31-FUJ (Acute Myeloid Leukemia); assay: as above
Procedure, shortened: as §1

[12] = tested on: RCC10RGB (Kidney Carcinoma); assay: as above
Procedure, shortened: as §1

[13] = tested on: SKN-3 (Head and Neck Carcinoma); assay: as above
Procedure, shortened: as §1

[14] = tested on: SLVL (B-Cell Non-Hodgkin's Lymphoma); assay: as above
Procedure, shortened: as §1

[15] = tested on: SNU-61 (Colorectal Carcinoma); assay: as above
Procedure, shortened: as §1

Saos-2 (Osteosarcoma) [16] = assay: as above
Procedure, shortened: as §1

[17] = tested on: YT (Other Blood Carcinomas); assay: as above
Procedure, shortened: as §1
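For Bliss excess, mean over the matrix in this document: after 72 h of two-drug dosing.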

C=CCn1c(=O)c2cnc(Nc3ccc(N4CCN(C)CC4)cc3)nc2n1-c1cccc(C(C)(C)O)n1 [AZD1775] + O=C(c1cc(Cc2n[nH]c(=O)c3ccccc23)ccc1F)N1CCN(C(=O)C2CC2)CC1 [Olaparib] (first compound max 1 µM, partner max 10 µM)
Bliss excess (A172 (Glioblastoma)): -0.0226
Bliss excess [1]: 0.0107
Bliss excess [2]: 0.0079
Bliss excess [3]: -0.042
Bliss excess (Saos-2 (Osteosarcoma) [4]): -0.0422
Bliss excess [5]: -0.0184
combination Emax [6]: 0.402
combination Emax [7]: 0.256
combination Emax [8]: 0.515
combination Emax (HCC38 (Breast Carcinoma)): 0.579
combination Emax [9]: 0.596
combination Emax [10]: 0.696
combination Emax (MSTO-211H (Mesothelioma)): 0.696
combination Emax [11]: 0.868
combination Emax [12]: 0.52
combination Emax [13]: 0.171
combination Emax [14]: 0.915
combination Emax [15]: 0.302
combination Emax (Saos-2 (Osteosarcoma) [16]): 0.613
combination Emax [17]: 0.902

CN(CCO)CC[C@H](CSc1ccccc1)Nc1ccc(S(=O)(=O)NC(=O)c2ccc(N3CCC([C@@H](O)c4ccccc4-c4ccc(Cl)cc4)CC3)cc2)cc1S(=O)(=O)C(F)(F)F [AZD4320] + CCN(CCO)CCCOc1ccc2c(Nc3cc(CC(=O)Nc4cccc(F)c4)[nH]n3)ncnc2c1 [AZD2811] (first compound max 1 µM, 7x7, partner max 1 µM)
Bliss excess (A172 (Glioblastoma)): 0.0322
Bliss excess [1]: -0.0008
Bliss excess [2]: 0.0522
Bliss excess [3]: -0.0596
Bliss excess (Saos-2 (Osteosarcoma) [4]): 0.0831
Bliss excess [5]: 0.201
combination Emax [6]: 0.397
combination Emax [7]: 0.155
combination Emax [8]: 0.26
combination Emax (HCC38 (Breast Carcinoma)): 0.802
combination Emax [9]: 0.968
combination Emax [10]: 0.513
combination Emax (MSTO-211H (Mesothelioma)): 0.837
combination Emax [11]: 0.954
combination Emax [12]: 0.133
combination Emax [13]: 0.0584
combination Emax [14]: 0.94
combination Emax [15]: 0.126
combination Emax (Saos-2 (Osteosarcoma) [16]): 0.77
combination Emax [17]: 0.196

Cc1c2c(nn1C)CSCc1cc(n(C)n1)CSc1cc(c3ccccc3c1)OCCCc1c(C(=O)O)n(C)c3c-2c(Cl)ccc13 [AZD5991] + Cn1cnc2c(F)c(Nc3ccc(Br)cc3Cl)c(C(=O)NOCCO)cc21 [Selumetinib] (first compound max 1 µM, 7x7, partner max 3 µM)
Bliss excess (A172 (Glioblastoma)): 0.0179
Bliss excess [1]: -0.0106
Bliss excess [2]: -0.0265
Bliss excess [3]: -0.0091
Bliss excess (Saos-2 (Osteosarcoma) [4]): -0.007
Bliss excess [5]: -0.0123
combination Emax [6]: 0.874
combination Emax [7]: 0.348
combination Emax [8]: 0.311
combination Emax (HCC38 (Breast Carcinoma)): 0.33
combination Emax [9]: 0.456
combination Emax [10]: 0.23
combination Emax (MSTO-211H (Mesothelioma)): 0.264
combination Emax [11]: 0.998
combination Emax [12]: 0.497
combination Emax [13]: 0.387
combination Emax [14]: 0.47
combination Emax [15]: 0.464
combination Emax (Saos-2 (Osteosarcoma) [16]): 0.247
combination Emax [17]: 1

CN(C)CCCOc1ccc(-c2ccc3ncc4c(c3c2)n(C2CCOCC2)c(=O)n4C)cn1 [AZD0156] + CCN(CCO)CCCOc1ccc2c(Nc3cc(CC(=O)Nc4cccc(F)c4)[nH]n3)ncnc2c1 [AZD2811] (first compound max 1 µM, 7x7, partner max 1 µM)
Bliss excess (A172 (Glioblastoma)): 0.0239
Bliss excess [1]: -0.047
Bliss excess [2]: 0.02
Bliss excess [3]: -0.0088
Bliss excess (Saos-2 (Osteosarcoma) [4]): 0.0088
Bliss excess [5]: 0.0362
combination Emax [6]: 0.33
combination Emax [7]: 0.0666
combination Emax [8]: 0.21
combination Emax (HCC38 (Breast Carcinoma)): 0.181
combination Emax [9]: 0.383
combination Emax [10]: 0.711
combination Emax (MSTO-211H (Mesothelioma)): 0.27
combination Emax [11]: 0.882
combination Emax [12]: 0.143
combination Emax [13]: 0.0518
combination Emax [14]: 0.605
combination Emax [15]: 0.0613
combination Emax (Saos-2 (Osteosarcoma) [16]): 0.369
combination Emax [17]: 0.591

Cc1cc2ncnn2cc1Nc1ncc2c(n1)n(C1CCOCC1)c(=O)n2C [AZD7648] + CCN(CCO)CCCOc1ccc2c(Nc3cc(CC(=O)Nc4cccc(F)c4)[nH]n3)ncnc2c1 [AZD2811] (first compound max 10 µM, 7x7, partner max 1 µM)
Bliss excess (A172 (Glioblastoma)): 0.0537
Bliss excess [1]: -0.0135
Bliss excess [2]: 0.0609
Bliss excess [3]: -0.0026
Bliss excess (Saos-2 (Osteosarcoma) [4]): 0.0364
Bliss excess [5]: 0.127
combination Emax [6]: 0.433
combination Emax [7]: 0.309
combination Emax [8]: 0.25
combination Emax (HCC38 (Breast Carcinoma)): 0.287
combination Emax [9]: 0.41
combination Emax [10]: 0.57
combination Emax (MSTO-211H (Mesothelioma)): 0.469
combination Emax [11]: 0.957
combination Emax [12]: 0.264
combination Emax [13]: 0.128
combination Emax [14]: 0.687
combination Emax [15]: 0.254
combination Emax (Saos-2 (Osteosarcoma) [16]): 0.45
combination Emax [17]: 0.624

Cc1cc2ncnn2cc1Nc1ncc2c(n1)n(C1CCOCC1)c(=O)n2C [AZD7648] + C[C@@H]1COCCN1C2=NC(=NC(=C2)C3(CC3)[S@](=N)(=O)C)C4=C5C=CNC5=NC=C4 [AZD6738] (first compound max 10 µM, 7x7, partner max 10 µM)
Bliss excess (A172 (Glioblastoma)): -0.0552
Bliss excess [1]: -0.0018
Bliss excess [2]: -0.1
Bliss excess [3]: 0.0048
Bliss excess (Saos-2 (Osteosarcoma) [4]): -0.0169
Bliss excess [5]: -0.001
combination Emax [6]: 0.485
combination Emax [7]: 0.317
combination Emax [8]: 0.621
combination Emax (HCC38 (Breast Carcinoma)): 0.565
combination Emax [9]: 0.493
combination Emax [10]: 0.632
combination Emax (MSTO-211H (Mesothelioma)): 0.681
combination Emax [11]: 0.967
combination Emax [12]: 0.316
combination Emax [13]: 0.185
combination Emax [14]: 0.886
combination Emax [15]: 0.326
combination Emax (Saos-2 (Osteosarcoma) [16]): 0.561
combination Emax [17]: 0.833

CN(CCO)CC[C@H](CSc1ccccc1)Nc1ccc(S(=O)(=O)NC(=O)c2ccc(N3CCC([C@@H](O)c4ccccc4-c4ccc(Cl)cc4)CC3)cc2)cc1S(=O)(=O)C(F)(F)F [AZD4320] + C[C@@H]1COCCN1C2=NC(=NC(=C2)C3(CC3)[S@](=N)(=O)C)C4=C5C=CNC5=NC=C4 [AZD6738] (first compound max 1 µM, 7x7, partner max 10 µM)
Bliss excess (A172 (Glioblastoma)): -0.0748
Bliss excess [1]: 0.0039
Bliss excess [2]: 0.0139
Bliss excess [3]: 0.0192
Bliss excess (Saos-2 (Osteosarcoma) [4]): 0.0256
Bliss excess [5]: 0.0329
combination Emax [6]: 0.619
combination Emax [7]: 0.252
combination Emax [8]: 0.675
combination Emax (HCC38 (Breast Carcinoma)): 0.933
combination Emax [9]: 0.976
combination Emax [10]: 0.691
combination Emax (MSTO-211H (Mesothelioma)): 0.959
combination Emax [11]: 0.994
combination Emax [12]: 0.492
combination Emax [13]: 0.546
combination Emax [14]: 0.94
combination Emax [15]: 0.365
combination Emax (Saos-2 (Osteosarcoma) [16]): 0.673
combination Emax [17]: 0.811
